{"source": "patent US8877809B2", "about": "“Compositions and methods for treating macular degeneration” (The Trustees of Columbia University in the City of New York, priority 2007, dated 2014)", "key": {"[1]": {"conditions": "mouse, in vivo; cited from earlier work"}, "[2]": {"system": "users", "conditions": "cited from earlier work"}, "[3]": {"system": "ABCR knockout mice", "conditions": "cited from earlier work"}, "[4]": {"experiment": "In vitro A2E formation from retinal, ethanolamine and acetic acid, followed by HPLC", "conditions": "mass spectrometry of the reaction mixture after 50 hours"}, "[5]": {"system": "CD-1 (ICR) mice", "experiment": "A2E-lipofuscin in eyes of CD-1 (ICR) mice after IP retinal dosing, HPLC", "assay_type": "in vivo", "conditions": "1.5 mg IP bi-weekly for 6 weeks; HPLC at 445 nm", "protocol": "C20-D3-all-trans-retinal was administered to mice in order to measure its ability to form A2E in the eye compared to all-trans-retinal. […], 8-week old, CD-1 (ICR) mice (from Charles River, Wilmington, Mass.) were divided up into two groups of five and administered 1.5 mg of ether all-trans-retinal or C20-D3-all-trans-retinal by intraperitoneal injection (IP) injection in a 10% solution of Tween-20 in saline bi-weekly for 6 weeks. At the end of this six-week period, each mouse was given a total of 60,000 I.U.(18 mg) or about 28-times the original amount of vitamin A in the mouse's body. Massive dosing with C20-D3-all-trans-retinal quickly replaces normal vitamin A stores with the C20-D3-analog. And, the injected retinal rapidly accumulates in the eye (rod outer segments), where at high enough concentrations it will react to form lipofuscin pigments. This is similar to the accumulation of all-trans-retinal in the ABCR^−/− mice and in patents with Stargardt's disease.\nAt the end of the six week period, the eyes were dissected, the retinas and eyecups pooled into groups of 4 or 5, and homogenated with 50 μL ethanol. The homogenate was centrifuged at 13,000 rpm for 5 minutes and 40 μL of the supernatant was drawn off and analyzed for A2E-lipofuscin by HPLC. Retinol and retinol esters were analyzed at 325 nm and A2E-lipofuscin was measured at 445 nm."}, "[6]": {"system": "CD IGS rats", "experiment": "A2E-lipofuscin in wild-type CD IGS rats after 8 weeks of IP retinal dosing, HPLC", "assay_type": "in vivo", "conditions": "for Total A2E-lipofuscin versus retinal group (FIG. 7A, in words): C20-D3-retinal alone, Fenretinide or TDH given with retinal; for Less A2E-lipofuscin compared to animals administered only all-trans-retinal: all-trans-retinal 3 mg IP for 8 weeks plus drug at roughly 1.5 mg/day/animal in drinking water", "protocol": "Animals treated with retinal had the greatest amount of A2E-lipofuscin (normalized to 100%).\n45-50 day old, female, CD IGS rats (Charles River, Wilmington, Mass.) were divided up into four groups of three. Three of these groups were administered all-trans-retinal and the one group was given C20-D3-all-trans-retinal (IP injection in a 10% solution of Tween-20 in saline) at 3 mg, bi- or tri-weekly for 8 weeks (20, 3 mg injections total). Thus, at the end of the 8-week period the animals received roughly 20 times their original stores of vitamin A, as retinal or C20-D3-all-trans-retinal. Massive dosing with C20-D3-all-trans-retinal quickly replaces normal vitamin A stores with the C20-D3-analog. Of the three groups administered all-trans-retinal, one group was given Fenretinide (50) and another TDH (23), at doses of roughly 1.5 mg/day/animal (both supplied in the drinking water emulsified with 1 g/L of Nu-rice (RIBUS, Inc, St. Louis, Mo.)).\nAt the end of the 8 weeks, RPE, A2E-lipofuscin was evaluated in each of the four groups by HPLC as described in Example 3 and in FIG. 7. A2E-lipofuscin pigments were greatest in the animals receiving all-trans-retinal (the control group)."}, "[7]": {"system": "ABCR−/− mice", "experiment": "A2E-lipofuscin in eyecups of ABCR-/- mice after 3-month diet, HPLC", "assay_type": "in vivo", "conditions": "diet with 20,000 I.U./kg for 3 months, from 2 months of age; HPLC at 445 nm", "protocol": "C20-D3-all-trans-retinol acetate was prepared according to the literature procedure (47) and was administered to ABCR^−/− mice (48, 49) in order to measure its ability to lead to lipofuscin compared to that of all-trans-retinol acetate. Eight 2-month old, ABCR^−/− mice raised on a standard rodent diet were then fed a diet containing 20,000 I.U./kg of either C20-D3-all-trans-retinol acetate or all-trans-retinol acetate for 3 months.\nAt the end of the […] period, the eyes were dissected, eyecups pooled into groups of six and homogenated with 80 μL ethanol. The homogenate was centrifuged at 13000 rpm for 5 min and 30 μL of the supernatant was drawn off and analyzed for A2E-lipofuscin by HPLC. A2E-lipofuscin was measured at 445 nm. […] This percentage of A2E reduction is on the same order of magnitude observed in similar studies in ABCR^−/− mice with the visual cycle antagonist TDH, TDT, Ret-NH2, 13-cis-retinoic, acid and fenretinide. However, in this example A2E reduction is achieved with doses of C20-D3-all-trans-retinol acetate that are 11- to 40-times less."}, "[8]": {"system": "ABCR−/− mice", "experiment": "Extractable lipofuscin pigments in eyecups of ABCR-/- mice raised exclusively on the diet, HPLC", "assay_type": "in vivo", "conditions": "5.5-6 month old mice raised only on the diet, offspring of mothers on the same diet", "protocol": "On the other hand, lipofuscin pigments were undetectable in mice raised on the C20-D3-all-trans-retinol acetate diet.\nAs in Example 4, two groups of four ABCR^−/− mice where raised either on diets containing C20-D3-all-trans-retinol acetate or all-trans-retinol acetate. However, in this example the mice were offspring of mothers on the same diet, and thus where raised only on their respective vitamin A analogs. At 5.5-6 months of age the mice were sacrificed and the eyecups were analyzed for lipofuscin pigments as described in Example 4. The results are shown FIG. 5."}, "[9]": {"system": "ABCR−/− mice", "experiment": "Electron microscopy of RPE lipofuscin deposits in ABCR-/- mice raised exclusively on the diet", "assay_type": "in vivo", "conditions": "5.5-6 month old mice raised only on the diet", "excerpt": "Due to the uncertainty in distinguishing lipofuscin from melanin bodies. Comparisons were made between the numbers of all dark, electron dense bodies found in the RPE between mice on the retinol acetate diet vs. those on the C20-D3-all-trans-retinol acetate diet. In addition to the electron dense lipofuscin and melanin bodies, RPE phagosomes, mitochondria, and lipid droplets are also present but were ultrastructurally distinct.\nIn order to measure the amount lipofuscin granules in the eyes of the above mice on a normal diet vs. the diet containing C20D3-all-trans-retinol acetate, eyecups from both groups of mice (2 from each group) were evaluated by electron microscopy."}, "[10]": {"experiment": "In vitro A2E formation from C20-fluorinated retinal, monitored by HPLC", "conditions": "C20 hydrogens replaced by fluorine; disappearance of retinal and absence of fluorinated A2E by HPLC", "excerpt": "In the present invention, when the C20 hydrogens of all-trans-retinoids are replaced by fluorine atoms (F3), the formation of A2E is eliminated, as measured by monitoring the disappearance of C20-F3-all-trans-retinal and the absence of the corresponding fluorinated A2E by HPLC. A2E and the ATR-dimer are believed to be formed in vivo by a multi-step reaction sequence involving two molecules of all-trans-retinal, as shown in FIG. 2. In the first step, all-trans-retinal condenses with a biological amine to form the imine. This imine is then thought to undergo a hydrogen shift involving a hydrogen atom at carbon C20 (step 2). Subsequent reaction (step 3) with another molecule of retinal either by 1,2- or 1,4-addition followed by cyclizations (step 4) yields A2E or ATR-dimer precursors, respectively. A2E is subsequently formed after spontaneous oxidation in air, and ATR dimer, after elimination (step 4).\nIt has been shown that replacing certain C—H bonds with C—F bonds in retinal (i.e., C20-F1-3-retinal) hampers the reactivity of all-trans-retinal, and, thus slows or eliminates the formation of A2E in vitro. By replacing hydrogen atoms at C20 with fluorine, the hydrogen shift step is blocked. Accordingly, C20-F1-3-retinal is expected to appreciably slow A2E and ATR-dimer biosynthesis."}, "[11]": {"system": "patients", "conditions": "200 mg/day for five years, 1,432 patients; cited from earlier work"}, "[12]": {"system": "patients", "conditions": "oral 600 or 900 mg/m2 bid in 6-week cycles, cited from earlier work"}, "[13]": {"conditions": "2-month-old ABCR knockout mice, 50 mg/kg bi-weekly for two months"}}, "note": "“Also recorded” adds a separate entry of the source. Read-outs that look alike come from different tables or passages of the source."}
{"molecule": "CC1=C(/C=C/C(C)=C/C=C/C(C)=C\\C(=O)O)C(C)(C)CCC1", "note": "[13 cis-retinoic acid]", "values": [{"measurement": "Effect on dark adaptation when administered", "setting": "[1]", "value": "delayed dark adaptation"}, {"measurement": "Share of users with back pain, muscle and joint pain, allergic reaction, dizziness, hair loss, dry eyes, decreased night vision, low blood counts and others", "setting": "[2]; in vivo", "value": "10-29%"}, {"measurement": "Share of users with headache, fever, dry skin, dry mucous membranes, bone pain, nausea and vomiting, rash, mouth sores, itching, sweating, eyesight changes", "setting": "[2]; larger doses used to treat cancer", "value": "more than 30%"}, {"measurement": "Lipofuscin formation in the RPE cell layer judged by electron microscopy", "setting": "[3]; 2-month-old ABCR knockout mice, 20 mg/kg/day for two months", "value": "decrease in lipofuscin formation"}, {"measurement": "Decrease in A2E formation compared to control ABCR knockout mice", "setting": "[3]; 3-month-old ABCR knockout mice, 40 mg/kg/day for one month", "value": "40-50%"}]}
{"molecule": "[2H]C([2H])([2H])C(/C=C/C=C(C)/C=C/C1=C(C)CCCC1(C)C)=C\\C=O", "note": "[C20-D3-all-trans-retinal]", "values": [{"measurement": "Hydrogen deuterium exchange during the reaction", "setting": "[4]", "value": "not observed"}, {"measurement": "Less A2E-lipofuscin compared to mice administered all-trans-retinal", "setting": "[5]", "value": 68, "unit": "%"}, {"measurement": "Less A2E-lipofuscin than animals receiving all-trans-retinal", "setting": "[6]; 3 mg IP bi- or tri-weekly for 8 weeks, given instead of all-trans-retinal", "value": 35, "unit": "%"}, {"measurement": "Total A2E-lipofuscin versus retinal group (FIG. 7A, in words)", "setting": "[6]", "value": "less A2E-lipofuscin"}]}
{"molecule": "[2H]C([2H])([2H])C(/C=C/C=C(C)/C=C/C1=C(C)CCCC1(C)C)=C\\COC(C)=O", "note": "[C20-D3-all-trans-retinol acetate]", "values": [{"measurement": "Less A2E-lipofuscin compared to mice on a diet of all-trans-retinol acetate", "setting": "[7]", "value": "44-58%"}, {"measurement": "Lipofuscin pigments extracted from eyecups (HPLC)", "setting": "[8]", "value": "undetectable"}, {"measurement": "Electron dense (lipofuscin) bodies in the RPE versus retinol acetate diet", "setting": "[9]", "value": "less electron dense lipofuscin deposits; also recorded: considerably less electron dense bodies"}]}
{"molecule": "CC(C=CC1=C(C)CCCC1(C)C)=CC=CC(=CC=O)C(F)(F)F", "note": "[C20-F3-all-trans-retinal]", "values": [{"measurement": "Formation of A2E", "setting": "[10]", "value": "eliminated"}]}
{"molecule": "CC1=C(/C=C/C(C)=C/C=C/C(C)=C/C(=O)Nc2ccc(O)cc2)C(C)(C)CCC1", "note": "[Fenretinide, N-(4-hydroxyphenyl)retinamide]", "values": [{"measurement": "Dermatologic disorders, incidence", "setting": "[11]", "value": 16, "unit": "%"}, {"measurement": "Diminished dark adaptation, cumulative incidence", "setting": "[11]", "value": 16, "unit": "%"}, {"measurement": "Disorders of the ocular surface, incidence", "setting": "[11]", "value": 8, "unit": "%"}, {"measurement": "Gastrointestinal symptoms, incidence", "setting": "[11]", "value": 8, "unit": "%"}, {"measurement": "Effect on dark adaptation when administered", "setting": "[1]", "value": "delayed dark adaptation"}, {"measurement": "Patients with mild to moderate adverse effects possibly linked to the drug", "setting": "[12]; 45 patients", "value": 95, "unit": "%"}, {"measurement": "Grade 2 toxicities reported as possibly linked to treatment", "setting": "[12]", "value": "seizures and confusion"}, {"measurement": "Decrease in A2E formation compared to control ABCA4 knockout mice", "setting": "[3]; 2-month-old ABCA4 knockout mice, 20 mg/kg/day for one month", "value": "40-50%"}, {"measurement": "Total A2E-lipofuscin versus retinal group (FIG. 7A, in words)", "setting": "[6]", "value": "less A2E-lipofuscin"}, {"measurement": "Less A2E-lipofuscin compared to animals administered only all-trans-retinal", "setting": "[6]", "value": 49, "unit": "%"}]}
{"molecule": "CC1=C(/C=C/C(C)=C/C=C/C(C)=C/CN)C(C)(C)CCC1", "note": "[Ret-NH2, All-trans-retinylamine]", "values": [{"measurement": "Effect on dark adaptation when administered", "setting": "[1]", "value": "severe delayed dark adaptation"}, {"measurement": "Decrease in A2E formation compared to control ABCA4 knockout mice", "setting": "[3]; 1-month-old ABCA4 knockout mice, 40 mg/kg bi-weekly for two months", "value": "about 50%"}]}
{"molecule": "CCCCCCCCCCCCCCCCNC/C=C(\\C)CC/C=C(\\C)CCC=C(C)C", "note": "[TDH, (2E,6E)-N-hexadecyl-3,7,11-trimethyldodeca-2,6,10-trienamine]", "values": [{"measurement": "Effect on dark adaptation when administered", "setting": "[1]", "value": "delayed dark adaptation"}, {"measurement": "Decrease in A2E formation compared to control ABCR knockout mice", "setting": "[3]; [13]", "value": "about 50%"}, {"measurement": "Total A2E-lipofuscin versus retinal group (FIG. 7A, in words)", "setting": "[6]", "value": "less A2E-lipofuscin"}, {"measurement": "Less A2E-lipofuscin compared to animals administered only all-trans-retinal", "setting": "[6]", "value": 31, "unit": "%"}]}
{"molecule": "CCCCCCCCCCC(=O)/C=C(\\C)CC/C=C(\\C)CCC=C(C)C", "note": "[TDT, (12E,16E)-13,17,21-trimethyldocosa-12,16,20-trien-11-one]", "values": [{"measurement": "Effect on dark adaptation when administered", "setting": "[1]", "value": "delayed dark adaptation"}, {"measurement": "Decrease in A2E formation compared to control ABCR knockout mice", "setting": "[3]; [13]", "value": "50-85%"}]}
{"molecule": "CC1=C(/C=C/C(C)=C/C=C/C(C)=C/C=O)C(C)(C)CCC1", "note": "[all-trans-retinal]", "values": [{"measurement": "Total A2E, HPLC peak area at 445 nm, normalized", "setting": "[6]; FIG. 7A, three female rats per group", "value": 100, "unit": "%"}]}
{"molecule": "all-trans-retinol acetate", "values": [{"measurement": "Lipofuscin pigments extracted from eyecups (HPLC)", "setting": "[8]", "value": "detectable"}, {"measurement": "Lipofuscin pigments extracted from eyecups (HPLC)", "setting": "[8]; listed as retinol acetate", "value": "considerable accumulation of lipofuscin pigments"}]}
